The conditions of series [1]: published values; cited from earlier work.
A short description of series [2]: Reduction of ABTS radical monoanion in EtOH (absorbance at 750 nm). The format is biochemical. As to the method:
To probe the potential antioxidant activity of Ru1, 2,2′-azino-bis(3-ethylbenzothiazoline-6-sulfonate) radical monoanion (ABTS^•−), which is stable in aerobic, protic media and undergoes reversible one-electron reduction to ABTS^2−, was selected as the substrate for studies of catalytic radical reduction (Scheme 7).
Accompanying this degradation of 50 μM ABTS^•− was an increase in absorbance at 340 nm corresponding to the formation of 50 μM ABTS^2−, indicating 1:1 conversion of ABTS^•− to ABTS^2− by Ru1.
To assess its catalytic potential and corresponding regeneration, the reactivity of Ru1 with multiple sequential aliquots of excess ABTS^•− was examined. After the reduction of 50 μM ABTS^•− by 5 μM Ru1 (DMSO stock) was complete (FIG. 12B, black line), 5 additional 50 μM aliquots of ABTS^•− were introduced, whereupon complete ABTS^•− reduction occurred each time (FIG. 12B, grey line, 60 turnovers). Although the time required for complete degradation increased with each successive ABTS^•− aliquot, 5 μM Ru1 nonetheless remained catalytically competent for the complete reduction of […] ABTS^•−.

Series [3] can be described thus: In situ oxidation of ABTS^2− to ABTS^•− via HRP and H2O2 in the presence of antioxidant. The format is biochemical.
The nature of series [4]: Stability (air, moisture, solution). To be noted: isolated powder. The format is physicochemical.

A word on the pKa: it is the negative logarithm of the acid dissociation constant. Turning to `OCCO` [EG, Ethylene glycol], the pKa in series [1] was 14.22.
For `CO` [MeOH, methanol], in series [1], the pKa is 15.5.
Consider `Cc1c(C)c2c(c(C)c1O)CCC(C)(C(=O)O)O2` (stereo not drawn) [Trolox], for which, in series [2] (5 μM antioxidant, 50 μM ABTS^•− in EtOH), the “ABTS^•− reduced” value was 10 µM. The “decay in radical absorbance at 750 nm” value in series [2] (5 μM antioxidant, 50 μM ABTS^•− in EtOH, 25° C.) is given as 20%. For the same compound, the “equiv. of ABTS^•− reduced vs antioxidant” value in series [2] (EtOH, non-catalytic capacity) turned out to be 2 equiv. In addition, in series [3] (5 μM Trolox, 10 μM H2O2), the “net oxidation of ABTS^2−” value is reported as 75% and the “time with no change in absorbance at 734 nm (ABTS^•− formation halted)” value is 4.2 ± 0.4 min. The “initial rate of ABTS^•− formation (v0)” value in series [3] (5 μM antioxidant (DMSO stock), 10 nM HRP, 50 μM ABTS^2−, first 10 μM H2O2, PBS) is listed as 3.44±0.11×10^−8 M s^−1. In series [3] (first 10 μM H2O2), the “maximum ABTS^•− concentration” value came to 15.06 ± 0.04 µM and the “time to maximum ABTS^•− concentration” value amounted to 22.0 ± 0.5 min.
As to `Br.Cc1cc(C)cc(-n2c[n+](CC(=O)[O-])c3ccccc32)c1` [[1H2][Br], 2-(3-{3,5-dimethylphenyl}-benzimidazol-1-ium-1-yl)acetate hydrobromide], in series [4], the “stability to air and moisture” value is “air- and moisture-stable”.
`CC(C)O` [i-PrOH, isopropanol]: the pKa in series [1] is 16.5.
